Laboratory results: PubChem BioAssay AID248 (DTP/NCI, 2004)
Toxic doses and inconclusive results are not listed.

Tested on: L1210 leukemia ip in BDF1 mice, survival T/C
Test: NCI In Vivo Anticancer Drug Screen. Data for tumor model L1210 Leukemia (intraperitoneal) in B6D2F1 (BDF1) mice
Conditions: endpoint: mean survival time, higher = longer survival
Summary of the method: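 Ratio derived from survival: compound-dosed mice over vehicle-dosed mice, all bearing a transplantable tumor.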

[1] = dose: 100.0 mg/kg/injection, schedule: Q01DX009 (ip), vehicle: Klucel (hydroxypropylcellulose) (HPC)
[2] = dose: 200.0 mg/kg/injection, schedule: Q01DX009 (ip), vehicle: Klucel (hydroxypropylcellulose) (HPC)
[3] = dose: 400.0 mg/kg/injection, schedule: Q01DX009 (ip), vehicle: Klucel (hydroxypropylcellulose) (HPC)
[4] = dose: 100.0 mg/kg/injection, schedule: Q01DX001 (ip), vehicle: carboxymethylcellulose (CMC)
[5] = dose: 100.0 mg/kg/injection, schedule: Q01DX009 (ip), vehicle: saline with Tween-80
[6] = dose: 100.0 mg/kg/injection, schedule: Q04DX003 (ip), vehicle: saline with Tween-80
[7] = dose: 200.0 mg/kg/injection, schedule: Q01DX009 (ip), vehicle: saline with Tween-80
[8] = dose: 200.0 mg/kg/injection, schedule: Q04DX003 (ip), vehicle: saline with Tween-80
[9] = dose: 400.0 mg/kg/injection, schedule: Q04DX003 (ip), vehicle: saline with Tween-80
[10] = dose: 100.0 mg/kg/injection, schedule: Q04DX002 (ip), vehicle: saline with Tween-80
[11] = dose: 200.0 mg/kg/injection, schedule: Q04DX002 (ip), vehicle: saline with Tween-80
[12] = dose: 400.0 mg/kg/injection, schedule: Q04DX002 (ip), vehicle: saline with Tween-80
[13] = dose: 100.0 mg/kg/injection, schedule: Q01DX001 (ip), vehicle: saline
[14] = dose: 200.0 mg/kg/injection, schedule: Q01DX001 (ip), vehicle: saline
[15] = dose: 400.0 mg/kg/injection, schedule: Q01DX001 (ip), vehicle: saline
[16] = dose: 100.0 mg/kg/injection, schedule: Q04DX003 (ip), vehicle: Klucel (hydroxypropylcellulose) (HPC)
[17] = dose: 200.0 mg/kg/injection, schedule: Q04DX003 (ip), vehicle: Klucel (hydroxypropylcellulose) (HPC)
[18] = dose: 400.0 mg/kg/injection, schedule: Q04DX003 (ip), vehicle: Klucel (hydroxypropylcellulose) (HPC)
[19] = dose: 50.0 mg/kg/injection, schedule: Q01DX009 (ip), vehicle: Klucel (hydroxypropylcellulose) (HPC)

CC1(C)N=C(N)N=C(N)N1c1cccc(CCCCc2ccccc2)c1
T/C (dose: 5.0 mg/kg/injection, schedule: Q01DX001 (ip), vehicle: saline): 86 % of control
T/C (dose: 10.0 mg/kg/injection, schedule: Q01DX001 (ip), vehicle: saline): 92 % of control
T/C (dose: 20.0 mg/kg/injection, schedule: Q01DX001 (ip), vehicle: saline): 103 % of control
T/C (dose: 25.0 mg/kg/injection, schedule: Q01DX001 (ip), vehicle: saline with Tween-80): 97 % of control
T/C (dose: 40.0 mg/kg/injection, schedule: Q01DX001 (ip), vehicle: saline): 92 % of control
T/C (dose: 50.0 mg/kg/injection, schedule: Q01DX001 (ip), vehicle: saline with Tween-80): 104 % of control
T/C (dose: 50.0 mg/kg/injection, schedule: Q01DX001 (ip), vehicle: saline): 112 % of control
T/C (dose: 100.0 mg/kg/injection, schedule: Q01DX001 (ip), vehicle: saline with Tween-80): 106 % of control

O=C(Nc1ccc(Cl)cc1[N+](=O)[O-])Oc1ccc(C2CCCCC2)cc1
T/C [1]: 93 % of control
T/C [2]: 89 % of control
T/C [3]: 88 % of control

O=C1C=CCC2c3nc4ccccc4cc3CN12 (stereo unspecified)
T/C (dose: 37.5 mg/kg/injection, schedule: Q04DX003 (ip), vehicle: saline): 95 % of control
T/C (dose: 75.0 mg/kg/injection, schedule: Q04DX003 (ip), vehicle: saline): 93 % of control
T/C (dose: 150.0 mg/kg/injection, schedule: Q04DX003 (ip), vehicle: saline): 95 % of control

NC(Cc1c[nH]c2ccc(O)cc12)C(=O)O (stereo unspecified)
T/C [4]: 95 % of control
T/C (dose: 200.0 mg/kg/injection, schedule: Q01DX001 (ip), vehicle: carboxymethylcellulose (CMC)): 102 % of control
T/C (dose: 400.0 mg/kg/injection, schedule: Q01DX001 (ip), vehicle: carboxymethylcellulose (CMC)): 100 % of control

CCc1ccc(C2=C(Cl)C(=O)C(c3ccc(CC)cc3)=C(Cl)C2=O)cc1
T/C (dose: 10.0 mg/kg/injection, schedule: Q01DX001 (ip), vehicle: carboxymethylcellulose (CMC)): 100 % of control
T/C (dose: 20.0 mg/kg/injection, schedule: Q01DX001 (ip), vehicle: carboxymethylcellulose (CMC)): 100 % of control
T/C (dose: 40.0 mg/kg/injection, schedule: Q01DX001 (ip), vehicle: carboxymethylcellulose (CMC)): 102 % of control
T/C (dose: 80.0 mg/kg/injection, schedule: Q01DX001 (ip), vehicle: carboxymethylcellulose (CMC)): 100 % of control
T/C [4]: 88 % of control

CCCCCCCCOc1ccccn1
T/C [5]: 110 % of control
T/C [6]: 100 % of control
T/C [7]: 91 % of control
T/C [8]: 105 % of control
T/C [9]: 103 % of control

C[N+](C)(C)CCCC#CC[N+]1(C)CCOCC1
T/C (dose: 8.4 mg/kg/injection, schedule: Q01DX009 (ip), vehicle: saline): 151 % of control
T/C (dose: 14.0 mg/kg/injection, schedule: Q01DX009 (ip), vehicle: saline): 197 % of control
T/C (dose: 39.0 mg/kg/injection, schedule: Q01DX009 (ip), vehicle: saline): 96 % of control
T/C (dose: 65.0 mg/kg/injection, schedule: Q07DX009 (ip), vehicle: saline): 157 % of control
T/C (dose: 108.0 mg/kg/injection, schedule: Q07DX009 (ip), vehicle: saline): 190 % of control
T/C (dose: 180.0 mg/kg/injection, schedule: Q07DX009 (ip), vehicle: saline): 177 % of control
T/C (dose: 300.0 mg/kg/injection, schedule: Q07DX009 (ip), vehicle: saline): 123 % of control

CCOC(=O)C(C(=O)OCC)C(=O)c1cccc2c1ccc1ccccc12
T/C [10]: 95 % of control
T/C [11]: 107 % of control
T/C [12]: 100 % of control

Nc1nc(N)c(N=Nc2ccc(S(=O)(=O)O)cc2)c(N)n1
T/C [6]: 102 % of control
T/C [8]: 102 % of control
T/C [9]: 104 % of control

Cc1cccc(NC(=O)c2ccccc2)n1
T/C [6]: 97 % of control
T/C [8]: 95 % of control
T/C [9]: 92 % of control

CN(C)C(=S)SCCC(N)C(=O)O (stereo unspecified)
T/C (dose: 50.0 mg/kg/injection, schedule: Q01DX009 (ip), vehicle: saline with Tween-80): 90 % of control
T/C [5]: 101 % of control
T/C [7]: 96 % of control

CC1=CC(=O)CC(c2ccc(N(C)C)cc2)C1 (stereo unspecified)
T/C (dose: 25.6 mg/kg/injection, schedule: Q04DX002 (ip), vehicle: saline with Tween-80): 101 % of control
T/C (dose: 64.0 mg/kg/injection, schedule: Q04DX002 (ip), vehicle: saline with Tween-80): 97 % of control

Nc1ccc2ncnn2c1
T/C [13]: 103 % of control
T/C [14]: 106 % of control
T/C [15]: 101 % of control

COc1ccc(CC2C(=O)OC(=O)C2Cc2ccc(OC)c(OC)c2)cc1OC (stereo unspecified)
T/C [6]: 91 % of control
T/C [8]: 104 % of control
T/C [9]: 94 % of control

NC(=O)CCc1cnc2ccccc2n1
T/C [1]: 89 % of control
T/C [16]: 106 % of control
T/C [2]: 95 % of control
T/C [17]: 106 % of control
T/C [3]: 90 % of control
T/C [18]: 97 % of control

CC1CN=C(Cc2ccc(NC(=O)c3ccc(C(=O)Nc4ccc(CC5=NCC(C)N5)cc4)cc3)cc2)N1 (stereo unspecified)
T/C (dose: 3.75 mg/kg/injection, schedule: Q01DX Z (ip), vehicle: water): 91 % of control
T/C (dose: 7.5 mg/kg/injection, schedule: Q01DX Z (ip), vehicle: water): 101 % of control

COC(=O)CCN(c1cccc(Cl)c1)S(=O)(=O)c1ccc(C)cc1
T/C [13]: 98 % of control
T/C [14]: 92 % of control
T/C [15]: 98 % of control

C/C(CCC(=O)O)=N\NC(=O)Cc1cccc2ccccc12
T/C [16]: 94 % of control
T/C [17]: 102 % of control
T/C [18]: 102 % of control

O=c1[nH]cnc2c(C3OC(CO)C(O)C3O)[nH]nc12 (stereo unspecified)
T/C (dose: 10.0 mg/kg/injection, schedule: Q01DX015 (ip), vehicle: carboxymethylcellulose (CMC)): 86 % of control
T/C (dose: 20.0 mg/kg/injection, schedule: Q01DX015 (ip), vehicle: carboxymethylcellulose (CMC)): 88 % of control

CC(=O)O[C@@]1(C)C(=O)OCC2=CCN3CC[C@@H](OC(=O)[C@H](C)[C@]1(C)OC(C)=O)[C@@H]23
T/C [13]: 117 % of control

CSCCC(NC(=O)c1ccccc1)C(=O)O (stereo unspecified)
T/C [16]: 94 % of control
T/C [17]: 92 % of control
T/C [18]: 94 % of control

CCC(C)C(C#N)(CCN(CC=C(C)C)CC=C(C)C)c1cccc2ccccc12 (stereo unspecified)
T/C [16]: 96 % of control
T/C [17]: 110 % of control
T/C [18]: 93 % of control

CCOC(=O)C1CCCCN1 (stereo unspecified)
T/C (dose: 75.0 mg/kg/injection, schedule: Q01DX001 (ip), vehicle: saline): 91 % of control
T/C (dose: 150.0 mg/kg/injection, schedule: Q01DX001 (ip), vehicle: saline): 91 % of control

FC1(F)C2Cc3ccccc3C2C1(F)F (stereo unspecified)
T/C [16]: 96 % of control
T/C [17]: 98 % of control
T/C [18]: 100 % of control

CC(C)C1=CCC(OC(=O)c2ccc(NC(=S)Nc3ccccc3)cc2)CC1 (stereo unspecified)
T/C [6]: 92 % of control
T/C [8]: 96 % of control
T/C [9]: 89 % of control

CCCCCCCCc1cc(Cl)c(O)c(Cl)c1
T/C [19]: 105 % of control
T/C [1]: 105 % of control
T/C [2]: 93 % of control

Cc1cc(C)c(-c2c(O)c(Br)c(-c3c(C)cc(C)c(Br)c3C)c(O)c2Br)c(C)c1Br
T/C (dose: 12.5 mg/kg/injection, schedule: Q01DX009 (ip), vehicle: Klucel (hydroxypropylcellulose) (HPC)): 100 % of control
T/C (dose: 12.5 mg/kg/injection, schedule: Q04DX003 (ip), vehicle: Klucel (hydroxypropylcellulose) (HPC)): 100 % of control
T/C (dose: 25.0 mg/kg/injection, schedule: Q01DX009 (ip), vehicle: Klucel (hydroxypropylcellulose) (HPC)): 103 % of control
T/C (dose: 25.0 mg/kg/injection, schedule: Q04DX003 (ip), vehicle: Klucel (hydroxypropylcellulose) (HPC)): 97 % of control
T/C [19]: 94 % of control
T/C (dose: 50.0 mg/kg/injection, schedule: Q04DX003 (ip), vehicle: Klucel (hydroxypropylcellulose) (HPC)): 102 % of control
T/C (dose: 75.0 mg/kg/injection, schedule: Q01DX009 (ip), vehicle: Klucel (hydroxypropylcellulose) (HPC)): 120 % of control

COC1CCC(/C=C(\C#N)C2CCC([N+](=O)[O-])CC2)CC1 (stereo unspecified)
T/C [10]: 106 % of control
T/C [11]: 102 % of control
T/C [12]: 98 % of control

O=c1oc(-c2ccccc2NS(=O)(=O)c2ccccc2)nc2cc(Cl)ccc12
T/C [1]: 103 % of control
T/C [2]: 104 % of control
T/C [3]: 110 % of control
